# Patent US4062948A, “Dihydromocimycin antibiotics” (Gist-Brocades N.V., priority 1970, dated 1977)
# “Also recorded” adds a separate entry of the source.
# What was measured:
# [1] = tested on: same microorganisms as mocimycin; experiment: in vitro antimicrobial activity, comparison of the two antibiotics; assay type: cell-based
# [2] = tested on: Actinobacillus equuli T 3; experiment: micro liquid serial dilution test (Table II); assay type: cell-based; conditions: T3, 18 hours at 30° C or 37° C, read-out: Minimum inhibitory concentration
# Protocol: (§1) The microbiological activity of the antibiotic preparation towards a number of micoorganisms has been determined by a micro liquid serial dilution test:
# (§2) A stock solution of the test compounds at a concentration of 200 μg/ml in 0.05 molar phosphate buffer at a pH of 6.5 was prepared and serial 1:1 dilutions were made with a liquid medium inoculated with the test organism, using conventional glass spot-test plates. The plates were incubated 18 hours at 30° C or 37° C. The minimum inhibitory concentration (MIC) which is the smallest concentration of compound completely inhibiting the growth of the test organism is read and calculated in μg/ml.
# Aspergilus niger D 184 = experiment: micro liquid serial dilution test (Table II); assay type: cell-based; conditions: 18 hours at 30° C or 37° C; read-out: Minimum inhibitory concentration
# Protocol: as §1, §2
# [3] = tested on: Bacillus cereus ATCC 9139; experiment: micro liquid serial dilution test (Table II); assay type: cell-based; conditions: ATCC9139, 18 hours at 30° C or 37° C, read-out: Minimum inhibitory concentration
# Protocol: as §1, §2
# [4] = tested on: Bacillus subtilis ATCC 6633; experiment: micro liquid serial dilution test (Table II); assay type: cell-based; conditions: ATCC6633, 18 hours at 30° C or 37° C, read-out: Minimum inhibitory concentration
# Protocol: as §1, §2
# Candida albicans A 7 = experiment: micro liquid serial dilution test (Table II); assay type: cell-based; conditions: A7, 18 hours at 30° C or 37° C, read-out: Minimum inhibitory concentration
# Protocol: as §1, §2
# [5] = tested on: Candida parapsilosis A 952; experiment: micro liquid serial dilution test (Table II); assay type: cell-based; conditions: Lodderomyces parapsilosis, A952; 18 hours at 30° C or 37° C; read-out: Minimum inhibitory concentration
# Protocol: as §1, §2
# Erwinia caretovora W 9 = experiment: micro liquid serial dilution test (Table II); assay type: cell-based; conditions: W9, 18 hours at 30° C or 37° C, read-out: Minimum inhibitory concentration
# Protocol: as §1, §2
# Escherichia coli M = experiment: micro liquid serial dilution test (Table II); assay type: cell-based; conditions: 18 hours at 30° C or 37° C, read-out: Minimum inhibitory concentration
# Protocol: as §1, §2
# Escherichia coli U 20 = experiment: micro liquid serial dilution test (Table II); assay type: cell-based; conditions: U20, 18 hours at 30° C or 37° C, read-out: Minimum inhibitory concentration
# Protocol: as §1, §2
# [6] = tested on: Lactobacillus acidophilus D 218; experiment: micro liquid serial dilution test (Table II); assay type: cell-based; conditions: D218, 18 hours at 30° C or 37° C, read-out: Minimum inhibitory concentration
# Protocol: as §1, §2
# [7] = tested on: Mycoplasma hyorhinus A 2230; experiment: micro liquid serial dilution test (Table II); assay type: cell-based; conditions: A2230, 18 hours at 30° C or 37° C, read-out: Minimum inhibitory concentration
# Protocol: as §1, §2
# [8] = tested on: Pasteurella multocida A 723; experiment: micro liquid serial dilution test (Table II); assay type: cell-based; conditions: A723, 18 hours at 30° C or 37° C, read-out: Minimum inhibitory concentration
# Protocol: as §1, §2
# Proteus mirabilis L 93 = experiment: micro liquid serial dilution test (Table II); assay type: cell-based; conditions: L93, 18 hours at 30° C or 37° C, read-out: Minimum inhibitory concentration
# Protocol: as §1, §2
# Proteus rettgeri A 821 = experiment: micro liquid serial dilution test (Table II); assay type: cell-based; conditions: Providencia rettgeri, A821; 18 hours at 30° C or 37° C; read-out: Minimum inhibitory concentration
# Protocol: as §1, §2
# [9] = tested on: Saccharomyces cerevisiae D 160; experiment: micro liquid serial dilution test (Table II); assay type: cell-based; conditions: D160, 18 hours at 30° C or 37° C, read-out: Minimum inhibitory concentration
# Protocol: as §1, §2
# Salmonella dublin P 43 = experiment: micro liquid serial dilution test (Table II); assay type: cell-based; conditions: Salmonella enterica, P43; 18 hours at 30° C or 37° C; read-out: Minimum inhibitory concentration
# Protocol: as §1, §2
# [10] = tested on: Salmonella typhimurium R 127; experiment: micro liquid serial dilution test (Table II); assay type: cell-based; conditions: Salmonella enterica, 18 hours at 30° C or 37° C, read-out: Minimum inhibitory concentration
# Protocol: as §1, §2
# Sarcina lutea ATCC 9341 = experiment: micro liquid serial dilution test (Table II); assay type: cell-based; conditions: Micrococcus luteus, ATCC9341; 18 hours at 30° C or 37° C; read-out: Minimum inhibitory concentration
# Protocol: as §1, §2
# [11] = tested on: Staphylococcus aureus A 55 (ATCC 65388); experiment: micro liquid serial dilution test (Table II); assay type: cell-based; conditions: ATCC65388, 18 h, read-out: Minimum inhibitory concentration
# Protocol: as §1, §2
# [12] = tested on: Streptococcus agalactiae A 732; experiment: micro liquid serial dilution test (Table II); assay type: cell-based; conditions: A732, 18 hours at 30° C or 37° C, read-out: Minimum inhibitory concentration
# Protocol: as §1, §2
# [13] = tested on: Streptococcus disgalactiae A 730; experiment: micro liquid serial dilution test (Table II); assay type: cell-based; conditions: A730, 18 hours at 30° C or 37° C, read-out: Minimum inhibitory concentration
# Protocol: as §1, §2
# [14] = tested on: Streptococcus faecalis A 306; experiment: micro liquid serial dilution test (Table II); assay type: cell-based; conditions: Enterococcus faecalis, A306; 18 hours at 30° C or 37° C; read-out: Minimum inhibitory concentration
# Protocol: as §1, §2
# [15] = tested on: Streptococcus faecalis L 80; experiment: micro liquid serial dilution test (Table II); assay type: cell-based; conditions: Enterococcus faecalis, L80; 18 hours at 30° C or 37° C; read-out: Minimum inhibitory concentration
# Protocol: as §1, §2
# [16] = tested on: Torulopsis glabrata A 420; experiment: micro liquid serial dilution test (Table II); assay type: cell-based; conditions: Nakaseomyces glabratus, A420; 18 hours at 30° C or 37° C; read-out: Minimum inhibitory concentration
# Protocol: as §1, §2
# [17] = tested on: Trichophyton mentagrophytes R 177; experiment: micro liquid serial dilution test (Table II); assay type: cell-based; conditions: R177, 18 hours at 30° C or 37° C, read-out: Minimum inhibitory concentration
# Protocol: as §1, §2
# Vibrio coli 1846 = experiment: micro liquid serial dilution test (Table II); assay type: cell-based; conditions: Campylobacter coli, 18 hours at 30° C or 37° C, read-out: Minimum inhibitory concentration
# Protocol: as §1, §2
# [18] = tested on: organisms of the Mycoplasma genus (pleuro-pneumonia like organisms); experiment: in vitro activity against Mycoplasma genus; assay type: cell-based
# [19] = growth promotion in pigs (Example III); assay type: in vivo; conditions: pigs, summary of Table VII
# Protocol: The sodium salt of mocimycin as obtained in Example I, was pre-mixed with wheat flour which mixture, added to the feed, was administered to pigs. The amount of the antibiotic present in the feed (based on the weight of the feed) is given hereinbelow in Table VII, in which the average relative weights of the pigs after 6 and 12 weeks, respectively are given.
smiles,measurement,setting,value
CC=CC=CC1OC(O)(C(CC)C(=O)NCC=CC=C(C)C(OC)C(C)C2OC(C=CC=CC=C(C)C(=O)C3=C(O)CCNC3=O)C(O)C2O)C(O)C(O)C1(C)C (centres unmarked) [dihydromocimycin],in vitro activity compared with mocimycin,[1],in many cases it shows even a better activity than mocimycin; also recorded: more active than mocimycin against many microorganisms
CC=CC=CC1OC(O)(C(CC)C(=O)NCC=CC=C(C)C(OC)C(C)C2OC(C=CC=CC=C(C)C(=O)c3c(O)cc[nH]c3=O)C(O)C2O)C(O)C(O)C1(C)C (centres unmarked) [mocimycin],MIC,[2],1.5 µg/mL
same,MIC,Aspergilus niger D 184,> 100 µg/mL
same,MIC,[3],0.3 µg/mL
same,MIC,[4],50 µg/mL
same,MIC,Candida albicans A 7,> 100 µg/mL
same,MIC,[5],> 100 µg/mL
same,MIC,Erwinia caretovora W 9,6 µg/mL
same,MIC,Escherichia coli M,> 100 µg/mL
same,MIC,Escherichia coli U 20,> 100 µg/mL
same,MIC,[6],> 100 µg/mL
same,MIC,[7],3 µg/mL
same,MIC,[8],4 µg/mL
same,MIC,Proteus mirabilis L 93,100 µg/mL
same,MIC,Proteus rettgeri A 821,> 100 µg/mL
same,MIC,[9],> 100 µg/mL
same,MIC,Salmonella dublin P 43,> 100 µg/mL
same,MIC,[10],> 100 µg/mL
same,MIC,Sarcina lutea ATCC 9341,25 µg/mL
same,MIC,[11],100 µg/mL
same,MIC,[12],0.9 µg/mL
same,MIC,[13],0.6 µg/mL
same,MIC,[14],1 µg/mL
same,MIC,[15],> 200 µg/mL
same,MIC,[16],> 100 µg/mL
same,MIC,[17],> 100 µg/mL
same,MIC,Vibrio coli 1846,100 µg/mL
same,activity in vitro,[18],considerable activity in vitro
same,growth promoting effect,[19],growth promoting effect
